Experimental data published in ChEMBL document CHEMBL2007661, “Compounds: GSK PKIS; Assays: UNC Frye lab” (2012).
Values joined by “and” are separate entries in the source; they are usually repeats but may differ in a detail not shown here. Identical values can stand only once.

Key:
[1] = molecular target: T1, Serine/threonine-protein kinase TBK1 (Homo sapiens) (UniProt Q9UHD2); conditions: at 1 µM
T1 sequence (whole entry): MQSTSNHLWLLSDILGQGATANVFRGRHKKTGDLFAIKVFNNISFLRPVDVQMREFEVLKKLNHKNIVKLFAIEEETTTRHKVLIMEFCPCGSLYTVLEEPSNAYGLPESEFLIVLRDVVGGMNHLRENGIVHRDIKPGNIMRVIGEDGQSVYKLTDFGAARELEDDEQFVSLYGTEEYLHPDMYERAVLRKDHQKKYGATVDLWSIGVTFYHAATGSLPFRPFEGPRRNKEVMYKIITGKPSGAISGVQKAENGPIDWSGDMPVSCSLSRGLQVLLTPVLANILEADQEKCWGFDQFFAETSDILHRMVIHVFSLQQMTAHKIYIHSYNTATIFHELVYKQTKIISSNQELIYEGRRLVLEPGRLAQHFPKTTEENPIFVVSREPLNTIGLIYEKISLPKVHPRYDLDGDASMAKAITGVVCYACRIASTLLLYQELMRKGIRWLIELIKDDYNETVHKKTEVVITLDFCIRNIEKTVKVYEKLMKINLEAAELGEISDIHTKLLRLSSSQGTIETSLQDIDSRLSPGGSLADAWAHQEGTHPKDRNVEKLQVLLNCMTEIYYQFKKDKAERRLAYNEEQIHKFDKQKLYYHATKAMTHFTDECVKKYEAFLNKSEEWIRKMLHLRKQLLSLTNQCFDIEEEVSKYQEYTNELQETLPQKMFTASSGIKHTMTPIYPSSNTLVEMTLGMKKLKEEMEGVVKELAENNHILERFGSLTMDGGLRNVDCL

[2] = molecular target: T2, Inhibitor of nuclear factor kappa-B kinase subunit alpha (Homo sapiens) (UniProt O15111); conditions: at 1 µM
T2 sequence (whole entry): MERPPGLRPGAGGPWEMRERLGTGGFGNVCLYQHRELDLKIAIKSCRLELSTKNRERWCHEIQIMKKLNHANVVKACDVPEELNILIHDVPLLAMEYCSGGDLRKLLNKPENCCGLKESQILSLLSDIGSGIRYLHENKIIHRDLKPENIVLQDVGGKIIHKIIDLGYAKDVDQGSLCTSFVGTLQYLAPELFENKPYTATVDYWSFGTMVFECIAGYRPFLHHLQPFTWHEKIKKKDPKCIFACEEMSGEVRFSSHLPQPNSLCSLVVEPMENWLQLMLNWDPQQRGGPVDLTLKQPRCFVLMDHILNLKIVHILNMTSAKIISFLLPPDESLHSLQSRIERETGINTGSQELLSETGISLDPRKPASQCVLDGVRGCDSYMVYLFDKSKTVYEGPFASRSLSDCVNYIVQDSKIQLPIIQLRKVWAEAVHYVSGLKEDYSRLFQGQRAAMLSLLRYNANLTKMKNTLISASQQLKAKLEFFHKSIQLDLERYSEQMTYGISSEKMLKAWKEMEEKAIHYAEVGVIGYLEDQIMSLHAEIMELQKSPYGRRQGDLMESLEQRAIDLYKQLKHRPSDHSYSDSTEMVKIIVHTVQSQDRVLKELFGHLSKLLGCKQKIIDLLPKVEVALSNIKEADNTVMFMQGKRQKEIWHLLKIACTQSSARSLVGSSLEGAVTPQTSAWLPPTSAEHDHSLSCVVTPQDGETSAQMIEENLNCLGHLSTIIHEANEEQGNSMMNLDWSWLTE

COc1cccc(-n2ncc3c(N/N=C/c4ccc(C)cc4)ncnc32)c1
inhibition [1]: 1% and 2% | inhibition [2]: 13%

CC1=C(C(=O)Nc2ccc3[nH]ncc3c2)C(c2ccc(F)cc2)N=C(c2ccc(C(F)(F)F)nc2)N1 (stereo unspecified)
inhibition [1]: 1% and -1% | inhibition [2]: -4%

COc1cccc(-n2ncc3c(N/N=C/c4ccc(S(C)(=O)=O)cc4)ncnc32)c1
inhibition [1]: 20% and 30% | inhibition [2]: 3% and 2%
